Measurements taken from ChEMBL document CHEMBL3885881, “DrugMatrix”.

Species on record: Rattus norvegicus
Assay: DrugMatrix - Regimen: Daily Repeat
Format: toxicity, organism-based, Sprague-Dawley
Design: regimen Daily Repeat, gender Male, age 6-8 weeks
Conditions: in vivo, po, route oral GAVAGE, vehicle .5 % CMC; for ABSOLUTE BASOPHIL / ABSOLUTE EOSINOPHIL / ABSOLUTE LYMPHOCYTE / ABSOLUTE MONOCYTE / ABSOLUTE SEGMENTED NEUTROPHIL / BASOPHIL / EOSINOPHIL / ERYTHROCYTE COUNT / HEMATOCRIT / HEMOGLOBIN / LEUKOCYTE COUNT / LYMPHOCYTE / MEAN CORPUSCULAR HEMOGLOBIN / MEAN CORPUSCULAR HEMOGLOBIN CONCENTRATION / MEAN CORPUSCULAR VOLUME / MONOCYTE / NEUTROPHIL / NUCLEATED RED BLOOD CELLS / PLATELET COUNT: tissue Blood; for ALANINE AMINOTRANSFERASE / ALBUMIN / ALKALINE PHOSPHATASE / ASPARTATE AMINOTRANSFERASE / BLOOD UREA NITROGEN / CARBON DIOXIDE / CHLORIDE / CHOLESTEROL / CREATINE PHOSPHOKINASE / CREATININE / GLUCOSE / LACTATE DEHYDROGENASE / LIPASE / PHOSPHORUS / POTASSIUM / SODIUM / TOTAL BILIRUBIN / TOTAL PROTEIN / URIC ACID: tissue Plasma
[1] = 200 mg/kg, 72 h, dose level Low, time 3 day
[2] = 200 mg/kg, 120 h, dose level Low, time 5 day
[3] = 1200 mg/kg, 72 h, dose level High, time 3 day
[4] = 1200 mg/kg, 120 h, dose level High, time 5 day

COc1cc(C(=O)NC2CCCNC2)cc(OC)c1OC (configuration not stated) [TROXIPIDE]
ABSOLUTE BASOPHIL [1]: 0 CELLS/uL
ABSOLUTE EOSINOPHIL [1]: 136.33 CELLS/uL
ABSOLUTE LYMPHOCYTE [1]: 11684 CELLS/uL
ABSOLUTE MONOCYTE [1]: 203.67 CELLS/uL
ABSOLUTE SEGMENTED NEUTROPHIL [1]: 809.33 CELLS/uL
BASOPHIL [1]: 0%
EOSINOPHIL [1]: 1%
ERYTHROCYTE COUNT [1]: 5.48 x10E6/uL
HEMATOCRIT [1]: 34.2%
HEMOGLOBIN [1]: 12.97 G/DL
LEUKOCYTE COUNT [1]: 12.83 x10E3/uL
LYMPHOCYTE [1]: 91%
MEAN CORPUSCULAR HEMOGLOBIN [1]: 23.67 pg
MEAN CORPUSCULAR HEMOGLOBIN CONCENTRATION [1]: 37.9 G/DL
MEAN CORPUSCULAR VOLUME [1]: 62.43 fL
MONOCYTE [1]: 1.67%
NEUTROPHIL [1]: 6.33%
NUCLEATED RED BLOOD CELLS [1]: 0.33 /100WBC
PLATELET COUNT [1]: 1247.33 x10E3/uL
ALANINE AMINOTRANSFERASE [1]: 38.67 u/L
ALBUMIN [1]: 4.37 G/DL
ALKALINE PHOSPHATASE [1]: 413.67 u/L
ASPARTATE AMINOTRANSFERASE [1]: 80 u/L
BLOOD UREA NITROGEN [1]: 14 mg/dL
CARBON DIOXIDE [1]: 26.33 mmol/L
CHLORIDE [1]: 106 MEQ/L
CHOLESTEROL [1]: 67 mg/dL
CREATINE PHOSPHOKINASE [1]: 457.67 u/L
CREATININE [1]: 0.16 mg/dL
GLUCOSE [1]: 165 mg/dL
LACTATE DEHYDROGENASE [1]: 90.67 u/L
LIPASE [1]: 9 u/L
PHOSPHORUS [1]: 13.6 mg/dL
POTASSIUM [1]: 6.02 MEQ/L
SODIUM [1]: 146.67 MEQ/L
TOTAL BILIRUBIN [1]: 0.23 mg/dL
TOTAL PROTEIN [1]: 5.87 G/DL
URIC ACID [1]: 1.57 mg/dL
ABSOLUTE BASOPHIL [2]: 0 CELLS/uL
ABSOLUTE EOSINOPHIL [2]: 142.33 CELLS/uL
ABSOLUTE LYMPHOCYTE [2]: 13091.33 CELLS/uL
ABSOLUTE MONOCYTE [2]: 94.33 CELLS/uL
ABSOLUTE SEGMENTED NEUTROPHIL [2]: 905.33 CELLS/uL
BASOPHIL [2]: 0%
EOSINOPHIL [2]: 1%
ERYTHROCYTE COUNT [2]: 5.5 x10E6/uL
HEMATOCRIT [2]: 35.17%
HEMOGLOBIN [2]: 13.37 G/DL
LEUKOCYTE COUNT [2]: 14.23 x10E3/uL
LYMPHOCYTE [2]: 92%
MEAN CORPUSCULAR HEMOGLOBIN [2]: 24.33 pg
MEAN CORPUSCULAR HEMOGLOBIN CONCENTRATION [2]: 38.03 G/DL
MEAN CORPUSCULAR VOLUME [2]: 63.97 fL
MONOCYTE [2]: 0.67%
NEUTROPHIL [2]: 6.33%
NUCLEATED RED BLOOD CELLS [2]: 0 /100WBC
PLATELET COUNT [2]: 1300.67 x10E3/uL
ALANINE AMINOTRANSFERASE [2]: 40.33 u/L
ALBUMIN [2]: 4.33 G/DL
ALKALINE PHOSPHATASE [2]: 383 u/L
ASPARTATE AMINOTRANSFERASE [2]: 84.33 u/L
BLOOD UREA NITROGEN [2]: 16.67 mg/dL
CARBON DIOXIDE [2]: 24.67 mmol/L
CHLORIDE [2]: 109 MEQ/L
CHOLESTEROL [2]: 69 mg/dL
CREATINE PHOSPHOKINASE [2]: 241.67 u/L
CREATININE [2]: 0.18 mg/dL
GLUCOSE [2]: 177.67 mg/dL
LACTATE DEHYDROGENASE [2]: 230 u/L
LIPASE [2]: 9 u/L
PHOSPHORUS [2]: 14 mg/dL
POTASSIUM [2]: 5.49 MEQ/L
SODIUM [2]: 147.33 MEQ/L
TOTAL BILIRUBIN [2]: 0.23 mg/dL
TOTAL PROTEIN [2]: 6.57 G/DL
URIC ACID [2]: 1.8 mg/dL
ABSOLUTE BASOPHIL [3]: 0 CELLS/uL
ABSOLUTE EOSINOPHIL [3]: 0 CELLS/uL
ABSOLUTE LYMPHOCYTE [3]: 8315.67 CELLS/uL
ABSOLUTE MONOCYTE [3]: 238.67 CELLS/uL
ABSOLUTE SEGMENTED NEUTROPHIL [3]: 579 CELLS/uL
BASOPHIL [3]: 0%
EOSINOPHIL [3]: 0%
ERYTHROCYTE COUNT [3]: 5.66 x10E6/uL
HEMATOCRIT [3]: 34.93%
HEMOGLOBIN [3]: 13.13 G/DL
LEUKOCYTE COUNT [3]: 9.13 x10E3/uL
LYMPHOCYTE [3]: 91%
MEAN CORPUSCULAR HEMOGLOBIN [3]: 23.23 pg
MEAN CORPUSCULAR HEMOGLOBIN CONCENTRATION [3]: 37.6 G/DL
MEAN CORPUSCULAR VOLUME [3]: 61.73 fL
MONOCYTE [3]: 2.33%
NEUTROPHIL [3]: 6.67%
NUCLEATED RED BLOOD CELLS [3]: 0 /100WBC
PLATELET COUNT [3]: 1475 x10E3/uL
ALANINE AMINOTRANSFERASE [3]: 56 u/L
ALBUMIN [3]: 4.5 G/DL
ALKALINE PHOSPHATASE [3]: 344 u/L
ASPARTATE AMINOTRANSFERASE [3]: 88 u/L
BLOOD UREA NITROGEN [3]: 12.67 mg/dL
CARBON DIOXIDE [3]: 27.67 mmol/L
CHLORIDE [3]: 106.33 MEQ/L
CHOLESTEROL [3]: 80.33 mg/dL
CREATINE PHOSPHOKINASE [3]: 209.33 u/L
CREATININE [3]: 0.21 mg/dL
GLUCOSE [3]: 138.33 mg/dL
LACTATE DEHYDROGENASE [3]: 178 u/L
LIPASE [3]: 8.67 u/L
PHOSPHORUS [3]: 11.63 mg/dL
POTASSIUM [3]: 6.42 MEQ/L
SODIUM [3]: 150.7 MEQ/L
TOTAL BILIRUBIN [3]: 0.2 mg/dL
TOTAL PROTEIN [3]: 6.4 G/DL
URIC ACID [3]: 1.2 mg/dL
ABSOLUTE BASOPHIL [4]: 0 CELLS/uL
ABSOLUTE EOSINOPHIL [4]: 55.33 CELLS/uL
ABSOLUTE LYMPHOCYTE [4]: 13790.67 CELLS/uL
ABSOLUTE MONOCYTE [4]: 0 CELLS/uL
ABSOLUTE SEGMENTED NEUTROPHIL [4]: 1154 CELLS/uL
BASOPHIL [4]: 0%
EOSINOPHIL [4]: 0.33%
ERYTHROCYTE COUNT [4]: 5.99 x10E6/uL
HEMATOCRIT [4]: 37.5%
HEMOGLOBIN [4]: 13.97 G/DL
LEUKOCYTE COUNT [4]: 15 x10E3/uL
LYMPHOCYTE [4]: 92%
MEAN CORPUSCULAR HEMOGLOBIN [4]: 23.33 pg
MEAN CORPUSCULAR HEMOGLOBIN CONCENTRATION [4]: 37.23 G/DL
MEAN CORPUSCULAR VOLUME [4]: 62.67 fL
MONOCYTE [4]: 0%
NEUTROPHIL [4]: 7.67%
NUCLEATED RED BLOOD CELLS [4]: 0 /100WBC
PLATELET COUNT [4]: 1467.33 x10E3/uL
ALANINE AMINOTRANSFERASE [4]: 59.33 u/L
ALBUMIN [4]: 4.1 G/DL
ALKALINE PHOSPHATASE [4]: 355.33 u/L
ASPARTATE AMINOTRANSFERASE [4]: 81.33 u/L
BLOOD UREA NITROGEN [4]: 15.33 mg/dL
CARBON DIOXIDE [4]: 24.33 mmol/L
CHLORIDE [4]: 106.33 MEQ/L
CHOLESTEROL [4]: 65.33 mg/dL
CREATINE PHOSPHOKINASE [4]: 150 u/L
CREATININE [4]: 0.2 mg/dL
GLUCOSE [4]: 176 mg/dL
LACTATE DEHYDROGENASE [4]: 88.67 u/L
LIPASE [4]: 8.33 u/L
PHOSPHORUS [4]: 13.83 mg/dL
POTASSIUM [4]: 6.2 MEQ/L
SODIUM [4]: 146.57 MEQ/L
TOTAL BILIRUBIN [4]: 0.17 mg/dL
TOTAL PROTEIN [4]: 6.17 G/DL
URIC ACID [4]: 2.43 mg/dL
